Source: patent publication US7951914B2, “Genetically modified cyclic-nucleotide controlled ion channels” (Forschungszentrum Julich GmbH, priority 2001, dated 2011)
Values belong to the molecule of their own block, whether it stands above or below them.

How the values were obtained:
[1] = system: endogenous phosphodiesterase (PDE); assay: Fluorescence-optical Ca2+ measurement: phosphodiesterase inhibition with T537M cAMP sensor; type: cell-based, human; details: IBMX 0-100 μm, then 5 μm forskolin, FIG. 5E
From the text: The excitation wavelength was 485 nm. The emission wavelength was 520 nm.
The effect of a phosphodiesterase (PDE) inhibitor on the forskolin-induced change in intracellular Ca^2+ concentration is shown. Cells which stably express the T537M mutants of the α3-CNG channel were first treated with different concentrations of the PDE inhibitor IBMX and then stimulated with 5 μm forskolin. […] The IBMX concentration was 0 μm (filled circles), 10 μm (open circles), 50 μm (filled triangles) or 100 μm (open triangles).

[2] = target: T1, Adenosine A2B receptor (Rattus norvegicus, UniProt P29276); details: Peakman and Hill 1994, primary rat astrocytes; read-out: K1/2 value indicated in the literature; cited from earlier work
T1 construct: host or cells: primary rat astrocytes
T1 sequence (P29276 1-332): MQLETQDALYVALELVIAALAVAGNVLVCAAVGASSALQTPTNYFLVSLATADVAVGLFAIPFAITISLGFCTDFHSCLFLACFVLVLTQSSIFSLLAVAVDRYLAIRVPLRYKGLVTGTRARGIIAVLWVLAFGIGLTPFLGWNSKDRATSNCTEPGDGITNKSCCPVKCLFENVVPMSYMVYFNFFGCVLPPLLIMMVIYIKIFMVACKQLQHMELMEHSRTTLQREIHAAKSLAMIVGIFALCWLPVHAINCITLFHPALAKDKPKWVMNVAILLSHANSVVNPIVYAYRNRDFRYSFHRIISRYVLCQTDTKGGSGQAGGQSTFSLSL

[3] = target: T2, corticotropin-releasing factor (CRF) receptor (Rattus norvegicus, UniProt P35353); assay: Fluorescence-optical Ca2+ measurement: CRF receptor with T537M cAMP sensor; type: cell-based; details: agonist CRF 100-1,000 pM, FIG. 5B
T2 construct: expressed in transfected cells; host or cells: HEK293 stably co-expressing pcCRFR1 and bovine α3 T537M
T2 sequence (P35353 24-415): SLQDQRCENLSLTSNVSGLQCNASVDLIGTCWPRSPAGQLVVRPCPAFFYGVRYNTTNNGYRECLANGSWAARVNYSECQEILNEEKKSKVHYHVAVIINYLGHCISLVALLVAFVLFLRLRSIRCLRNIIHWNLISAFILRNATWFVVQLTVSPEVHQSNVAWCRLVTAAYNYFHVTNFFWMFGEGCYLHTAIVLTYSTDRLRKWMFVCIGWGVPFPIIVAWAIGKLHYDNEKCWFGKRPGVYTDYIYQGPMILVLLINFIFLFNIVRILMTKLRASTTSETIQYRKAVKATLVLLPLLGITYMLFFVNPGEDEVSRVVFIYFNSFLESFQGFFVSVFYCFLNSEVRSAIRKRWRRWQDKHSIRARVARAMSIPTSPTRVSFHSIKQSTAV
Protocol: The CRF receptor was cloned by carrying out a PCR of primary strand cDNA of rat hypophyses, using the primers #843 (5′-[…]-3′) (SEQ ID NO 11) and #842 (5′-[…]-3′) (SEQ ID NO 12). A 100 μl PCR mixture comprised 10 ng of primary strand cDNA, 1×PCR buffer for Taq polymerase incl. 1.5 mM of MgCl2, 200 μm of dNTPs, 1 U of Taq polymerase and in each case 150 ng of the two primers. The PCR conditions were as follows. 2 minutes of denaturation at 94° C., followed by 44 cycles of in each case 45 s at 94° C., 45 s at 56° C., 75 s at 72° C. The 1271 bp fragment was cloned via BamHI and SacI in pBluescript SK^—into (pBCRFR1). […]
FIG. 5B depicts the fluorimetrically measured change in intracellular Ca^2+ concentration in cells which stably express both the corticotropin-releasing factor (CRF) receptor and the T537M mutant of the α3-CNG channel. The time course of fluorescence intensity after stimulation of the cells with the agonist CRF is shown. […]
Cells which stably express the corticotropin-releasing factor (CRF) receptor and the T537M mutants of the α3-CNG channel were treated with the helical antagonist 9-41 (Rivier J., Rivier C., and Vale W. W. (1984) Synthetic competitive antagonists of corticotropin-releasing factor: effect on ACTH secretion in the rat. Science, 224, 889-891), before being stimulated with CRF (1 nM). The time course of fluorescence intensity is shown. […]

[4] = target: T3, CNG channels comprising the α3 subunits from the epithelium of the nose (Bos taurus, UniProt Q03041); details: Dhallan 1990; Ludwig 1990; cited from earlier work
T3 sequence (Q03041 1-663): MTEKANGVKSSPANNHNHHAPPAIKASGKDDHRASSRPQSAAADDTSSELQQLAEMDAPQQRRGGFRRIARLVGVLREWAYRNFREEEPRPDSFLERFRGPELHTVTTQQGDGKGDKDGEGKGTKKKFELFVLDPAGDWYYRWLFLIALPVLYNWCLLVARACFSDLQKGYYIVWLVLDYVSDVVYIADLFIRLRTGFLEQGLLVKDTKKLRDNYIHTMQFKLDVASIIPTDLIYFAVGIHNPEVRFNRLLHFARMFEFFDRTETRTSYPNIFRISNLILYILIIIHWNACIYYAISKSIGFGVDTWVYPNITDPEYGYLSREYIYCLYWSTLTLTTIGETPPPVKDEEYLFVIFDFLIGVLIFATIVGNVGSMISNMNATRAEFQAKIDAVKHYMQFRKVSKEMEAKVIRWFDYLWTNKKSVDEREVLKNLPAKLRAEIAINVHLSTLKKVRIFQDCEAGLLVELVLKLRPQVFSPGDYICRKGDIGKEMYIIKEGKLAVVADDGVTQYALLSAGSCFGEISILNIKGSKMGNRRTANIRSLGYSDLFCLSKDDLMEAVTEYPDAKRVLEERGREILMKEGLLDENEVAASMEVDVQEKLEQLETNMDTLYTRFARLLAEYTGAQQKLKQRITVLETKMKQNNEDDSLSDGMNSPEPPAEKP

Molecule: CC(C)Cn1c(=O)n(C)c(=O)c2[nH]cnc21 [IBMX]
- extent of the forskolin-induced change in intracellular Ca2+ concentration [1]: depend on the concentration of the PDE inhibitor

Molecule: Nc1ncnc2c1ncn2[C@@H]1O[C@H](CO)[C@@H](O)[C@H]1O [adenosine]
- EC50 [2]: 5 µM

- speed and extent of the change in Ca2+ [3]: depend on the CRF concentration
Molecule: CRF: corticotropin-releasing factor, agonist of the CRF receptor

B1: CNG channels comprising the α3 subunits: prior-art CNG channels of α3 subunits from the epithelium of the nose (protein, UniProt Q16280 1-664, looked up)
Cyclic nucleotide-gated …: MTEKTNGVKSSPANNHNHHAPPAIKANGKDDHRTSSRPHSAADDDTSSELQRLADVDAPQQGRSGFRRIVRLVGIIREWANKNFREEEPRPDSFLERFRGPELQTVTTQEGDGKGDKDGEDKGTKKKFELFVLDPAGDWYYCWLFVIAMPVLYNWCLLVARACFSDLQKGYYLVWLVLDYVSDVVYIADLFIRLRTGFLEQGLLVKDTKKLRDNYIHTLQFKLDVASIIPTDLIYFAVDIHSPEVRFNRLLHFARMFEFFDRTETRTNYPNIFRISNLVLYILVIIHWNACIYYAISKSIGFGVDTWVYPNITDPEYGYLAREYIYCLYWSTLTLTTIGETPPPVKDEEYLFVIFDFLIGVLIFATIVGNVGSMISNMNATRAEFQAKIDAVKHYMQFRKVSKGMEAKVIRWFDYLWTNKKTVDEREILKNLPAKLRAEIAINVHLSTLKKVRIFHDCEAGLLVELVLKLRPQVFSPGDYICRKGDIGKEMYIIKEGKLAVVADDGVTQYALLSAGSCFGEISILNIKGSKMGNRRTANIRSLGYSDLFCLSKDDLMEAVTEYPDAKKVLEERGREILMKEGLLDENEVATSMEVDVQEKLGQLETNMETLYTRFGRLLAEYTGAQQKLKQRITVLETKMKQNNEDDYLSDGMNSPELAAADEP
- cGMP concentration that activates the channels [4]: 2 µM
